Assay results taken from US11226337B2, “Chemoproteomic profiling of protein electrophilic and oxidative post-translational modifications” (Zenagem, LLC, priority 2017, dated 2022).

Target: T1, LGMN Legumain (Q99538) (Homo sapiens, UniProt Q99538)
T1 construct: shared by both the endogenous and recombinant forms of these proteins; endogenous in cells; host or cells: HEK293T and MDA-MB-231
T1 sequence (Q99538 18-323): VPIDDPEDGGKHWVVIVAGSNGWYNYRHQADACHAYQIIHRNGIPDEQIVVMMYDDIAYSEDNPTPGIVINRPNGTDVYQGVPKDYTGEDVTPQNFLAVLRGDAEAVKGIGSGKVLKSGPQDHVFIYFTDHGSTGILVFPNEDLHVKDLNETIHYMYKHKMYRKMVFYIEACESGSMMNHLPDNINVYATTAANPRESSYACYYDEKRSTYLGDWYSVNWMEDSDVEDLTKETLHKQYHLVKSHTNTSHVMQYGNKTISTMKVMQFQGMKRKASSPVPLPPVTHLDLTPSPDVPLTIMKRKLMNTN
Experiment: SILAC RP-ABPP
Format: cell-based
Settings: SILAC H/L
Experimental: Modifications to this protocol included using isotopically ‘light’ and ‘heavy’ SILAC cells that were also grown to near complete confluence prior to treatment. Isotopically light cells were treated with the non-clickable hydrazine probe (at the same concentration as the probe in ‘enrichment’ experiments) or the probe in the presence of 10-fold excess non-clickable hydrazine probe as a competitor (in ‘competition’ experiments). Isotopically heavy cells were treated with the probe for both types of experiments. These treatments were performed in non-SILAC media. Following treatments, cells were washed with cold PBS to remove the probe-containing media, harvested by scraping, collected by centrifugation (1,400 g, 3 min, 4° C.), washed again by resuspension in cold PBS and frozen as pellets at −80° C. until use.
The fractionated equimolar mixture of heavy and light soluble proteomes (1-1.5 mg) was diluted to 1 mL in PBS. Click reactions were scaled accordingly (except for biotin-azide) to maintain final concentrations of 0.1 mM TBTA, 1 mM CuSO4, 100 μM biotin-azide (10 mM in DMSO) and 1 mM TCEP. The mixture was vortexed and placed on a rotator at ambient temperature for 1 hour. Sequential addition of and mixture with pre-chilled methanol (MeOH, 2 mL), chloroform (CHCl3, 0.5 mL) and PBS (1 mL) on ice quenched the reaction. The precipitated proteome was centrifuged (5,000 g, 10 min, 4° C.) to fractionate the protein interphase from the organic and aqueous solvent layers. The protein pellet was washed with cold 1:1 MeOH:CHCl3 (3×1 mL), mildly sonicated in cold 4:1 MeOH:CHCl3 (2.5 mL) and pelleted once more by centrifugation (5,000 g, 10 min, 4° C.) to ensure click reagents were efficiently removed.
Heavy and light parent ion chromatograms associated with successfully identified peptides were extracted and compared using CIMAGE software as previously described^69. At least one ion of a co-eluting heavy-light pair must be accurately identified from a fragmentation event that occurred within the retention time window (±10 min) of parent ion elution. To ensure that the correct pair of peaks is quantified, chromatograms are extracted within a 10 ppm error tolerance of the predicted m/z, the signal-to-noise ratio must be >2.5 and the ‘co-elution correlation score’ and ‘envelope correlation score’ must have R^2 values ≥0.8. In addition, peptides detected as ‘singletons,’ where only the heavy ion of a peptide pair was identified, but for which passed all other filtering parameters, are given a default assigned ratio of ‘20,’ which is defined as any measured ratio that is ≥20.
To further eliminate false positives and any stochastic variability in the data, protein ratios were then determined by the median peptide ratio derived from three or more unique quantified peptides. Protein ratios that complied with these criteria from a single experiment were then averaged with ratios acquired from ≥3 replicates to provide final values for each type of experiment in both cell lines with both probes. […] Probe targets in HEK293T and MDA-MB-231 cells represent data combined from ≥3 independent biological replicates with each cell type performed with several independent batches of synthesized probes over a period of almost two years.
Two types of experiments were performed—1) direct enrichment of probe 1-labelled proteins from heavy cells in comparison to light control cells treated with the non-clickable hydrazine (3) at the same concentration as 1 (3 mM for 0.5 h); and 2) competition experiments where both heavy and light cells were treated probe 1, but light cells were also treated with 10× competitor 3 (FIG. 3A)—in two different human cell lines (HEK293T cells and the human breast cancer cell line MDA-MB-231).

enrichment ratioavg (probe 2 1 mM 0.5 h vs probe 4, MDA-MB-231)	competition ratioavg (probe 2 vs probe 2+10x probe 4, MDA-MB-231)	SMILES	enrichment ratioavg (probe 1 3 mM 0.5 h vs probe 3, HEK293T)	competition ratioavg (probe 1 vs probe 1+10x probe 3, HEK293T)
20	4	C#CCCNC(=O)c1ccc(NN)cc1.Cl [probe 2, N-(but-3-yn-1-yl)-4-hydrazinylbenzamide hydrochloride]	–	–
–	–	C#CCNN.Cl [probe 1, prop-2-yn-1-ylhydrazine hydrochloride]	20	18
